Laboratory results taken from patent publication US10646455B2, “Uses of hydroxyanigorufone” (TCI CO., LTD, priority 2017, dated 2020).

Columns and labels:
Assay type in all cases: cell-based
Details in all cases: 0.0625 μg/ml, 48 hours, control set as 1-fold, average of three experiments
[1] = tested on: TPH1 gene; assay: qPCR expression of TPH1 gene in SHSY5Y cells
Protocol: (§1) SHSY5Y cells were seeded in a 6-well plate (1×10^5 cells/well) and then cultured for 24 hours. Thereafter, cells were divided into the control group and experimental group and were separately cultured in the following medium for 48 hours: • 1. Control group: DMEM medium; • 2. Experimental group: a medium the same as that of the control group, but additionally added with 0.0625 μg/ml of the compound of formula (I).
(§2) Thereafter, cells of the above groups were harvested and subjected to an RNA extraction with an RNA Extract Kit. The RNA thus obtained was then transcribed into cDNA by using a Reverse Transcriptase. Thereafter, the cDNA was subjected to a quantitative polymerase chain reaction (qPCR) by using a Step One Plus system and a KAPA SYBR FAST qPCR kit to determine the expression levels of genes related to melatonin (including TPH1, DDC, AANAT and ASMTL) in the cells of each group.
(§3) The above experimental steps were repeated three times, and then the results of the three experiments were averaged. Thereafter, the result of the control group was used as a basis (i.e., the gene expression level of the control group was set as 1-fold) to calculate the relative gene expression level of the experimental group.

[2] = tested on: DDC gene; assay: qPCR expression of DDC gene in SHSY5Y cells
Protocol: as §1, §2, §3

[3] = tested on: AANAT gene; assay: qPCR expression of AANAT gene in SHSY5Y cells
Protocol: as §1, §2, §3

[4] = tested on: ASMTL gene; assay: qPCR expression of ASMTL gene in SHSY5Y cells
Protocol: as §1, §2, §3

O=C1C(O)=Cc2cccc3ccc(-c4ccc(O)cc4)c1c23 [compound of formula (I), hydroxyanigorufone]
significantly increased: expression level of TPH1 gene relative to control group [1] | expression level of DDC gene relative to control group [2] | expression level of AANAT gene relative to control group [3] | expression level of ASMTL gene relative to control group [4]
